Measured values reported in paper PMC7022466, “Developing Clinically Relevant Dissolution Specifications for Oral Drug Products—Industrial and Regulatory Perspectives” (Pharmaceutics, 2019).
Where two headings read alike, the source gives them in different places.

How the values were obtained:
BCS classification = type: physicochemical
Text: The Biopharmaceutics Classification System (BCS) provides a well-established framework for assessing the biopharmaceutics risk of immediate release drug products, based on properties of the Active Pharmaceutical Ingredient (API) and drug product. The compounds are classified into one of four groups, according to their solubility and permeability properties. Compounds in BCS Class 1 (high solubility, high permeability) and BCS Class 3 (high solubility, low permeability) are eligible for biowaivers, i.e., the requirement for an in vivo bioequivalence study is waived if certain requirements are met. For the development of CRDS for these compounds, the BCS effectively acts as an accepted body of ‘prior knowledge’, as the ability of dissolution in simple aqueous buffers across the physiological pH range to ensure in vivo bioequivalence is already well established. This can form the basis of CRDS for BCS Class 1 and 3 compounds, unless additional data are generated to justify the further widening of these limits for a specific drug product.
During the experiments for continuous process improvements of JNJ-1, a new crystal form has been isolated from the drug substance crude crystallization step. The new form appeared to be the thermodynamically favoured form in the process conditions. […]

[1] = Food effect (high-fat meal) on absorption; type: in vivo; conditions: clinically relevant dose strengths
Text: (§1) In a first step, the physico-chemical characteristics of both API forms were compared in biorelevant media. Table 1 provides an overview of the solubility data and intrinsic dissolution properties. For both API forms, the compound is practically insoluble in water, irrespective of pH, but it undergoes substantial solubilization in the presence of bile. […] However, as the solubility of the newly isolated form is about 40% lower when compared to canagliflozin hemihydrate, the bioavailability in the fasted state conditions remains uncertain.
The integration of the biopharmaceutical parameters relevant for drug absorption in a more physiological context further expanded the risk assessment. For this, a PBBM model was developed and validated for JNJ-1 while using GastroPlus™ (version 8.5). Based on the available physicochemical properties, in vitro biopharmaceutical experimentation, biorelevant dissolution data, and clinical PK parameters, the model was able to simulate the in vivo observed clinical PK data.

[2] = Solubility in biorelevant media; type: physicochemical
Text: as §1

[3] = Intrinsic dissolution rate in biorelevant media; type: physicochemical
Text: as §1

[4] = cited from earlier work
[5] = design: method as in PMID 25182387; conditions: cited from earlier work
[6] = virtual simulation, 120 mg tablets; cited from earlier work
[7] = design: method as in PMID 25182387; conditions: pH 4.5 and 6.8; cited from earlier work

Structure (SMILES)	BCS class (BCS classification)	Effect of a high-fat meal on absorption [1]	Solubility FaSSIF ([2]; FaSSIF) [µg/mL]	Solubility FeSSIF ([2]; FeSSIF) [µg/mL]	Solubility SGF ([2]; SGF) [µg/mL]	Intrinsic Dissolution Rate FaSSIF ([3]; FaSSIF) [µg/min/cm^2]	Intrinsic Dissolution Rate FeSSIF ([3]; FeSSIF) [µg/min/cm^2]	Intrinsic Dissolution Rate SGF ([3]; SGF) [µg/min/cm^2]	Bioequivalence of formulations from the two sites, clinical study [4]	BCS class [5]	Predicted AUC0-120 hr and Cmax bioequivalence of two sites formulations [6]	F2 similarity test of dissolution profiles between two sites [7]
Cc1ccc([C@@H]2O[C@H](CO)[C@@H](O)[C@H](O)[C@H]2O)cc1Cc1ccc(-c2ccc(F)cc2)s1.O [Registered crystal form, canagliflozin hemihydrate]	BCS class 4	absence of any effect	540	5000	37	13.8	157.9	3.9				
Cc1ccc(-c2ncc(Cl)cc2-c2ccc(S(C)(=O)=O)cc2)cn1 [etoricoxib]									bioequivalent	BCS II	bioequivalent	failed
